Test system: cardiac gene expression
Assay: Microarray analysis of cardiac gene expression (GeneChip Mouse Genome 430 2.0)
Type: in vivo, mice
Details: mouse heart, vs isoproterenol only (CH)
Description: Microarray Sample Preparation and Analysis. Animal hearts were rapidly removed, and the atria and right ventricles were cut and immediately plunged into TRIzol Reagent (Life Technologies). Total RNA was isolated following the manufacturer's instructions, purified by phenol-chloroform extraction and then ethanol precipitation, and 20 μg further processed for microarray analysis. Briefly, cDNA synthesis, in vitro transcription, and labeling and fragmentation to produce the oligonucleotide probes were performed as instructed by the GeneChip manufacturer (Affymetrix). The probes were first hybridized to a test array (Affymetrix) and then to the GeneChip Mouse Genome 430 2.0 Array, using the GeneChip Hybridization Oven 640. The chips were washed in a GeneChip Fluidics Station 450 (Affymetrix), and the results were visualized with a GeneChip G7 scanner (Affymetrix). RMA normalization, pairwise comparisons, Student's t test and Benjamini and Hochberg correction were subsequently performed using GeneSifter (VizX Labs, Seattle, Wash.) and Spotfire DecisionSite 8.3 (Spotfire, Inc., Somerville, Mass.).
Effects on Gene Expression Profile. […] One mouse heart was used for each array, and was performed in triplicate, generating a total of 12 arrays. GeneSifter was used to perform RMA normalization, pairwise comparisons of averaged signal intensity values, and Student's t-test with Benjamini and Hochberg correction, and Spotfire was used to perform pairwise comparisons. […] Additionally, genes that were altered between any two N or cardiac hypertrophy samples were removed, as these alterations most likely represented normal variations between mice.

Compound: C[C@H]1c2cccc(O)c2C(=O)C2=C(O)[C@]3(O)C(=O)C(C(N)=O)=C(O)[C@@H](N(C)C)[C@@H]3[C@@H](O)[C@@H]21 [doxycycline]
- FC cDNA, AK012898 (CH vs normal 3.3): −2.9 fold
- FC Cyclin G2 (Ccng2), NM_007635 (CH vs normal 3.4): −3.1 fold
- FC TRAF2 and K interacting kinase (Tnik), AI117633 (CH vs normal 3.4): −3.4 fold
- FC cDNA, BB098431 (CH vs normal 3.4): −1.8 fold
- FC Interleukin-1 receptor-associated kinase 3 (Irak3), AV228493 (CH vs normal 3.5): −2.1 fold
- FC CD163 antigen (CD163), NM_053094 (CH vs normal 3.6): −2.1 fold
- FC ATP-binding cassette, sub-family A (ABC1), member 1 (Abca1), BB305534 (CH vs normal 3.7): −1.9 fold
- FC Mcf.2 transforming sequee-like (Mcf21), AV293368 (CH vs normal 3.7): −2.3 fold
- FC cDNA, BE956710 (CH vs normal 3.7): −4.4 fold
- FC cDNA, BG276629 (CH vs normal 3.7): −3.1 fold
- FC Lipopolysaccharide binding protein (Lbp), NM_008489 (CH vs normal 3.8): −3.4 fold
- FC Alcohol dehydrogenase 1, complex (Adh1), BC013477 (CH vs normal 3.9): −3.4 fold
- FC Nuclear factor of kappa light polypeptide gene enhaer in B-cells inhibitor, zeta (Nfkbiz), NM_030612 (CH vs normal 3.9): −2.7 fold
- FC cDNA, BB038506 (CH vs normal 3.9): −2.1 fold
- FC Alpha-2-HS-glycoprotein (Ahsg), AI256465 (CH vs normal 4.0): −2.7 fold
- FC BCL2/adenovirus E1B interacting protein 1, NIP3 (Bnip3), NM_009760 (CH vs normal 4.1): −2.0 fold
- FC Chitinase 3-like 3 (Chi313), NM_009892 (CH vs normal 4.1): −4.1 fold
- FC Colony stimulating factor 2 receptor, beta 2, low-affinity (granulocyte-macrophage) (Csf2rb2), NM_007781 (CH vs normal 4.1): −2.9 fold
- FC NADPH oxidase 4 (Nox4), BC021378 (CH vs normal 4.3): −3.2 fold
- FC Calcium-sensitive chloride conductae protein-1 (Clca1), AF047838 (CH vs normal 4.4): −3.6 fold
- FC Connector enhaer of kinase suppressor of Ras 1 (Cnksr1), BB739754 (CH vs normal 4.4): −3.6 fold
- FC cDNA, AK008807 (CH vs normal 4.5): −2.7 fold
- FC Arrestin domain containing 2 (Arrdc2), AW542672 (CH vs normal 4.6): −3.5 fold
- FC cDNA, BM117672 (CH vs normal 4.6): −3.2 fold
- FC Serum amyloid A 3 (Saa3), NM_011315 (CH vs normal 4.7): −4.1 fold
- FC Caer related gene-liver 1 (CRG-L1), AF282864 (CH vs normal 4.9): −3.0 fold
- FC Calcium/calmodulin-dependent protein kinase II, beta (Camk2b), BG862223 (CH vs normal 4.9): −4.0 fold
- FC Aryl hydrocarbon receptor nuclear translocator-like (Arnt1), BC011080 (CH vs normal 5.0): −5.1 fold
- FC Oostatin receptor (Osmr), NM_011019 (CH vs normal 5.1): −2.6 fold
- FC cDNA, BE634869 (CH vs normal 5.2): −2.8 fold
- FC cDNA, BB795572 (CH vs normal 5.3): −2.3 fold
- FC cDNA, AK009753 (CH vs normal 5.4): −3.0 fold
- FC cDNA, AI607873 (CH vs normal 5.5): −4.0 fold
- FC Cytokine inducible SH2-containing protein 3 (Socs3), BB241535 (CH vs normal 6.0): −3.5 fold
- FC Apolipoprotein D (Apod), NM_007470 (CH vs normal 6.4): −3.4 fold
- FC Cytochrome P450, 1b1, benz(a)anthracene inducible (Cyp1b1), NM_009994 (CH vs normal 6.4): −3.2 fold
- FC Membrane-spanning 4-domains, subfamily A, member 6d (Ms4a6d), NM_026835 (CH vs normal 6.4): −2.3 fold
- FC mVL30-1 retroelement mRNA sequee, BG066678 (CH vs normal 6.6): −4.2 fold
- FC Proteoglycan 4 (megakaryocyte stimulating factor, articular superficial zone protein) (Prg4), NM_021400 (CH vs normal 6.8): −3.3 fold
- FC cDNA, BF719154 (CH vs normal 7.0): −3.2 fold
- FC CCAATenhaer binding protein (CEBP), delta (Cebpd), BB831146 (CH vs normal 7.4): −4.1 fold
- FC Ca(2+)-sensitive chloride channel 2 (Clca2), AF108501 (CH vs normal 7.4): −5.1 fold
- FC Lysyl oxidase (Lox), M65143 (CH vs normal 7.4): −2.7 fold
- FC cDNA, AU018141 (CH vs normal 7.8): −3.2 fold
- FC Cytokine inducible SH2-containing protein 3 (Socs3), BB831725 (CH vs normal 8.2): −4.9 fold
- FC cDNA, BF682848 (CH vs normal 10.6, first BF682848 line): −5.7 fold
- FC C-type (calcium dependent, carbohydrate recognition domain) lectin, superfamily member 8 (Clecsf8), NM_010819 (CH vs normal 10.8): −2.7 fold
- FC Lysyl oxidase (Lox), NM_010728 (CH vs normal 11.1): −3.0 fold
- FC Cyclin-dependent kinase inhibitor 1A (p21) (Cdkn1a), AK007630 (CH vs normal 14.6): −6.5 fold
- FC FK506 binding protein 5 (51 kDa) (Fkbp5), BC015260 (CH vs normal 16.3): −4.5 fold
- FC cDNA, BF682848 (CH vs normal 21.4, second BF682848 line): −5.2 fold
- FC Lipocalin 2 (Lcn2), X14607 (CH vs normal 27.7): −13.3 fold
- FC Serine protease inhibitor 2-2 (Spi2-2) (Serpin3n), NM_009252 (CH vs normal 40.5): −9.7 fold
- FC Metallophosphoesterase domain containing 2 (Mpped2), AK012553 (CH vs normal −1.5): 2.0 fold
- FC ATP-sensitive potassium channel subunit (Kir6.2) (Kcnj11), U73626 (CH vs normal −1.6): 1.8 fold
- FC CD99 antigen (CD99), AK002762 (CH vs normal −1.6): 1.6 fold
- FC CD248 antigen, endosialin (CD248), NM_054042 (CH vs normal −1.6): 1.7 fold
- FC cDNA, BB627097 (CH vs normal −1.6): 2.4 fold
- FC cDNA, BM229539 (CH vs normal −1.6): 2.1 fold
- FC Cytoplasmic polyadenylation element binding protein 3 (Cpeb3), BB281000 (CH vs normal −1.7): 2.6 fold

Source: patent publication US20080305186A1, “Method and Composition for the Treatment of Cardiac Hypertrophy” (BOARD OF REGENTS, THE UNIVERSITY OF TEXAS SYSTEM, priority 2007, published 2008)
